In patent US20080292584A1 (priority 2005, published 2008):
Where “and” joins values, the source holds several entries; their conditions need not be identical. Equal values may be shown once.

What was measured:
CYP2B6 = test: Induction/inhibition of CYP2B6 activity in cryopreserved human hepatocytes (S-mephenytoin); settings: human; for Nirvanol formation Adjusted Mean ± SD: 48 h
Description: Hepatocytes from three human donors were obtained from a cryopreserved hepatocyte bank (In Vitro Technologies, Inc., USA). After thawing, viable hepatocytes were transferred to collagen-coated 48-well plates for attachment in plating medium (DMEM stock (Dulbecco's modified Eagle's medium, supplemented with bovine serum albumin, fructose, N-(2-hydroxyethyl)piperazine-N′-(2-ethanesulfonate) (HEPES), and sodium bicarbonate), supplemented with antibiotics, bovine serum, hydrocortisone, insulin and minimum essential medium (MEM) nonessential amino acids). After attachment to the collagen matrix, plating medium was replaced with sandwich medium (plating medium supplemented with VITROGEN) and incubated until use.
The supplemented KHB was replaced with 150 μL supplemented KHB containing the appropriate isoform-selective substrate and incubated for 4 hrs prior to termination by adding 150 μL ice-cold methanol, except for the CYP2C8 incubations which were terminated by adding 150 μL acetonitrile.
All substrates were dissolved in acetonitrile.
Replicate trials and controls were performed. […] Additionally, reference control samples were included to evaluate inducibility of CYP2B6, CYP2C9, and CYP2C19 in the test system.
Mean specific activity values with associated p-values≦0.05 were deemed to be statistically significant.

[1] = Metaxalone turnover in pooled human liver microsomes without inhibitor (LC-MS/MS); settings: for % Turnover Mean / Mean Conc. / % Turnover / Conc. / Mean metaxalone disappearance: 1 mg/mL microsomal protein; for % Turnover Mean / Mean Conc. / % Turnover / Conc.: 60 min, no inhibitor; for % Turnover / Conc.: single replicates
Method: Stocks were diluted daily in the appropriate buffers such that the final organic solvent concentration was <1%.
The reactions, in 0.1 M phosphate buffer, pH 7.4, were initiated by addition of 1 mM NADPH. Negative controls (no NADPH and heat-treated microsomes) were included to account for any non-enzymatic or non-NADPH dependent reactions. The reactions were terminated at the appropriate time points by addition of 1 volume (relative to total reaction volume) of methanol. The samples were centrifuged at approximately 3000 rpm and the clear supernatant was transferred to a clean tube and analyzed by the LC-MS/MS method described above.

[2] = in vivo; Bruce et al. 1966; cited from earlier work
CYP2C19 = CYP2C19 (Homo sapiens, UniProt P33261); test: in vitro; settings: pooled human liver microsomes, probe S-mephenytoin 50 μM (to 4′-hydroxy mephenytoin);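 also: CYP2C19 incubations ran for 30 minutes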
Chain of CYP2C19 (P33261 whole entry): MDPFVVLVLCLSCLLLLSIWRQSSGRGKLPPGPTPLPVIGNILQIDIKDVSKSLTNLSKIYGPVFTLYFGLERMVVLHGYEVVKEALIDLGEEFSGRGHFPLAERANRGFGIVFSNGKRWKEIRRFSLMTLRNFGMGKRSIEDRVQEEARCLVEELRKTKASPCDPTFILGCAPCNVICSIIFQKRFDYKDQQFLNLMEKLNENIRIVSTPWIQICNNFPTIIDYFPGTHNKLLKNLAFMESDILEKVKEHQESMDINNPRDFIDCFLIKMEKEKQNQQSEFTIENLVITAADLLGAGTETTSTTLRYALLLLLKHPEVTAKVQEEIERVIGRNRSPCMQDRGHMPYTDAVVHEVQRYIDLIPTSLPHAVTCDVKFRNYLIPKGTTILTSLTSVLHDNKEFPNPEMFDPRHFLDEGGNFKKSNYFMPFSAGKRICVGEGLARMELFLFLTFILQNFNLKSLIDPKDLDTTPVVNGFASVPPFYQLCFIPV
Method: Microsomes were prepared by differential centrifugation of liver homogenates pooled from at least ten human donors.
After a 5 minute preincubation, NADPH regenerating system (NRS) was added to initiate the reaction. CYP2A6 and CYP3A4 incubations were for 10 minutes. All other incubations were for 30 minutes.
Incubations for CYP2C8 were terminated by adding 1.0 mL of ACN, while all other incubations were terminated by adding 1.0 mL of methanol.
Vehicle control experiments were performed to establish a baseline value for enzyme activity. […] Four replicates were performed.
Two replicates were performed. […] No interference was detected in any of the metabolite assay methods used.

CYP2E1 [3] = biological target: T1, CYP2E1 (Homo sapiens, UniProt P05181); test: Inhibition of CYP2E1 activity in pooled human liver microsomes (chlorzoxazone 50 μM to 6-hydroxy chlorzoxazone); assay type: in vitro ADME; set-up: host or cells: cryopreserved primary human hepatocytes from three donors
T1 sequence (P05181 whole entry): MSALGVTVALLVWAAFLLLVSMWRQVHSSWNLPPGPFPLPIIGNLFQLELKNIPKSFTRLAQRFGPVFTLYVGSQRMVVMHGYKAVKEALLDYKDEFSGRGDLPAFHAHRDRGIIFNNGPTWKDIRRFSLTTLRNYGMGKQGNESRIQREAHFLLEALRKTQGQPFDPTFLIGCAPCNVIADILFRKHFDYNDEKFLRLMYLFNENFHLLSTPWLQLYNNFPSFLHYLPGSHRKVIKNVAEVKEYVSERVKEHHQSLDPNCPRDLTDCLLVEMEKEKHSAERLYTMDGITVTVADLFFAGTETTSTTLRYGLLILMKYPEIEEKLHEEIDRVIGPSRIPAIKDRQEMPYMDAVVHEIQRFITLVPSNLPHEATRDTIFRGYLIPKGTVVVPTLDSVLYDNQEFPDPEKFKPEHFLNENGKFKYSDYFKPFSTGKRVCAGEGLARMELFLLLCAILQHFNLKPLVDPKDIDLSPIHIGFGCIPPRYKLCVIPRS
Method: All other incubations were for 30 minutes.
Four replicates were performed.
Two replicates were performed.

CYP2C8 = biological target: T2, CYP2C8 (Homo sapiens, UniProt P10632); test: Chemical inhibition of metaxalone turnover in human liver microsomes, CYP2C8 inhibitor quercetin; settings: 1 mg/mL HLM, 60 min, with quercetin, single replicates
T2 sequence (P10632 1-490): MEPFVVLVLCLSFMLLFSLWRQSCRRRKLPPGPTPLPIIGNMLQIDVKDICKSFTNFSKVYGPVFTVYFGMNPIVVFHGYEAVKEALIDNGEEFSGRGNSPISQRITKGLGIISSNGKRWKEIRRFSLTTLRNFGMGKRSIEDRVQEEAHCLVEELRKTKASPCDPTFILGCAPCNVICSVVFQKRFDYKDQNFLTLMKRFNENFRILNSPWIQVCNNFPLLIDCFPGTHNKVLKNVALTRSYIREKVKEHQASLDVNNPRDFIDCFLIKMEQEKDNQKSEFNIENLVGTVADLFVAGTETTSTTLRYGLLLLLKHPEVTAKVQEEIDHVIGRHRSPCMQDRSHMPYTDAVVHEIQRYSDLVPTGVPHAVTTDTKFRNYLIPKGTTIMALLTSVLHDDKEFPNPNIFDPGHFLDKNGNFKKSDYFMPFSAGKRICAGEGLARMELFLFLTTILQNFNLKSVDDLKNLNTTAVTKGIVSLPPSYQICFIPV
Method: (§1) Human liver microsomes pooled from 15 individuals (male and female) (Pool HMMC-PL020; CellzDirect, Inc., In Vitro Products and Services Division) were used in some experiments of this study.
(§2) % Turnover=100−{[TA(final)]/[mean of TA(0 min)]}×100,
(§3) % Inhibition of Turnover=100{1−([TA(0 min)]−[TA(final-inhibitor)])/([TA(0 min)]−[TA(final-no inhibitor)])}.
(§4) The inhibitors or vehicle control were incubated with the pooled human liver microsomes (1 mg/mL) and NADPH (1 mM) in 0.1 M phosphate buffer, pH 7.4. […] Incubations were conducted in triplicate and terminated by addition of organic solvent. Samples were extracted and analyzed by LC-MS/MS as described above.

CYP2E1 [4] = biological target: T1, CYP2E1; test: Chemical inhibition of metaxalone turnover in human liver microsomes, CYP2E1 inhibitor clomethiazole; settings: 1 mg/mL HLM, 60 min, with clomethiazole; for % Turnover / % inhibition of turnover / Conc.: single replicates
Method: as §1, §2, §3, §4

## Cc1cc(C)cc(OCC2CNC(=O)O2)c1 (stereo not shown) [metaxalone, 5-[(3,5-dimethylphenoxy)methyl]-2-oxazolidinone]
CYP2B6
  Inducer/Inhibitor: 0
CYP2B6; 0.4 μM
  Nirvanol formation Adjusted Mean ± SD: 0.0340 ± 0.000883 µM
CYP2B6; 4 μM
  Nirvanol formation Adjusted Mean ± SD: 0.0305 ± 0.00272 µM
[1]; 0.75 μM metaxalone
  % Turnover Mean: 29.8%
  Mean Conc.: 542 nM
  % Turnover: 30.5% and 27.3% and 31.5%
  Conc.: 536 nM and 561 nM and 529 nM
[1]; 0.75 μM metaxalone, 60 minutes
  Mean metaxalone disappearance: 29.8±1.3%
[1]; 7.5 μM metaxalone
  % Turnover Mean: 24.6%
  Mean Conc.: 6420 nM
  % Turnover: 24.8% and 23.9% and 25.1%
  Conc.: 6400 nM and 6480 nM and 6380 nM
[1]; 7.5 μM metaxalone, 60 minutes
  Mean metaxalone disappearance: 24.6±0.3%
[1]; 60 minutes, 1 mg/mL protein, NADPH-dependent
  maximum turnover: 38.0%
[2]
  metaxalone converted to a carboxylic acid derivative: 27%
CYP2C19
  inhibition at 30 min, 100 μM: 35.1%
CYP2E1 [3]; 0.3-100 μM metaxalone, p≦0.05
  inhibition of CYP activity at a statistically significant level: inhibited
CYP2E1 [3]; CYP isozyme 2E1, summary of studies
  Inhibitor: +
CYP2E1 [3]; human, pooled human liver microsomes, probe chlorzoxazone 50 μM (to 6-hydroxy chlorzoxazone)
  inhibition at 30 min, 100 μM: 12.8%
CYP2E1 [3]; metaxalone 0.3 μM
  Percent of VC: 83.3%
  Specific Activity Individual: 196 pmol/min/mg protein and 187 pmol/min/mg protein and 185 pmol/min/mg protein
  Specific Activity Mean ± SD: 189 ± 6.08 pmol/min/mg protein
CYP2E1 [3]; metaxalone 1 μM
  Percent of VC: 84.0%
  Specific Activity Individual: 194 pmol/min/mg protein (2×) and 185 pmol/min/mg protein
  Specific Activity Mean ± SD: 191 ± 5.18 pmol/min/mg protein
CYP2E1 [3]; metaxalone 3 μM
  Percent of VC: 88.6%
  Specific Activity Individual: 203 pmol/min/mg protein (2×) and 198 pmol/min/mg protein
  Specific Activity Mean ± SD: 201 ± 2.94 pmol/min/mg protein
CYP2E1 [3]; metaxalone 30 μM
  Percent of VC: 86.1%
  Specific Activity Individual: 191 pmol/min/mg protein and 199 pmol/min/mg protein and 197 pmol/min/mg protein
  Specific Activity Mean ± SD: 196 ± 3.88 pmol/min/mg protein
CYP2E1 [3]; metaxalone 100 μM
  Percent of VC: 87.2%
  Specific Activity Individual: 200 pmol/min/mg protein and 202 pmol/min/mg protein and 193 pmol/min/mg protein
  Specific Activity Mean ± SD: 198 ± 4.66 pmol/min/mg protein
CYP2C8; 0.75 μM metaxalone
  % Turnover: 14.3%
  Conc.: 661 nM
CYP2C8; 7.5 μM metaxalone
  % Turnover: −1.8%
  % inhibition of turnover: 107%
CYP2E1 [4]; 0.75 μM metaxalone
  % inhibition of turnover Mean: 113%
  Mean Conc.: 802 nM
  % Turnover: 5.6%
  % inhibition of turnover: 104% and 154% and 81.4%
  Conc.: 780 nM and 896 nM and 729 nM
CYP2E1 [4]; 7.5 μM metaxalone
  % Turnover Mean: 0.356%
  % inhibition of turnover Mean: 98.6%
  Mean Conc.: 8480 nM
  % Turnover: 2.7%
  % inhibition of turnover: 89.2% and 101% and 105%
  Conc.: 8290 nM and 8540 nM and 8630 nM
